{"source": "patent US20220048961A1", "about": "“TRANSFERRIN RECEPTOR TARGETING PEPTIDES” (FRED HUTCHINSON CANCER RESEARCH CENTER, priority 2018, published 2022)", "tested_on": "neurotensin receptor (CRE-driven luciferase)", "experiment": "CRE-luciferase reporter mice, whole-animal brain luminescence (IVIS)", "format": "in vivo", "conditions": "1.68 mg rolipram and 0.84 mg forskolin given together IP, luciferin four hours after, FIG. 31", "data": [{"smiles": "COc1ccc(C2CNC(=O)C2)cc1OC1CCCC1", "note": "(stereo not shown) [rolipram]", "values": [{"measurement": "CRE-driven luciferase induction (brain luminescence), positive control", "result": "high levels of luminescence from the animal's brain"}]}]}
